Source: ChEMBL document CHEMBL4706610, “Hydroxypyridinone-Based Iron Chelators with Broad-Ranging Biological Activities” (J Med Chem, 2020)
Values after ≈ are worked out from the molar mass of the structure shown. Values belong to the compound of their own block, whether it stands above or below them.

Assays:
[1] = Octanol/water partition coefficient, log P of the compound shaken for 45 mins and measured after 15 mins; type: physicochemical; conditions: time 60 min
[2] = Binding affinity to iron assessed as pFe3+ by spectrophotometric method
Plasmodium falciparum [3] = test: Antiplasmodial activity against chloroquine-resistant Plasmodium falciparum Dd2 incubated for 48 hrs by parasite lactate dehydrogenase assay; type: functional, organism-based; conditions: Dd2, 48 h
Plasmodium falciparum [4] = test: Antiplasmodial activity against chloroquine-sensitive Plasmodium falciparum 3D7 incubated for 48 hrs by parasite lactate dehydrogenase assay; type: functional, organism-based; conditions: 3D7, 48 h
Plasmodium falciparum [5] = test: Antiplasmodial activity against chloroquine-sensitive Plasmodium falciparum D10 incubated for 48 hrs by parasite lactate dehydrogenase assay; type: functional, organism-based; conditions: D10, 48 h
Plasmodium falciparum [6] = test: Antiplasmodial activity against chloroquine-resistant Plasmodium falciparum K1 incubated for 48 hrs by parasite lactate dehydrogenase assay; type: functional, organism-based; conditions: K1, 48 h
[7] = tested on: Staphylococcus epidermidis; test: Antibacterial activity against Staphylococcus epidermis ATCC 12228 measured after 18 to 24 hrs by CLSI-based microdilution technique; type: functional; conditions: time 18-24 hrs
[8] = Binding affinity to Fe3+ assessed as binding constant
[9] = Binding affinity to iron assessed as pFe3+
Escherichia coli = test: Antibacterial activity against Escherichia coli incubated for 2 hrs followed by sterilized TSB addition and measured after 24 hrs by visual inspection; type: functional; conditions: time 26 hrs
Bacillus subtilis = test: Antibacterial activity against Bacillus subtilis incubated for 2 hrs followed by sterilized TSB addition and measured after 24 hrs by visual inspection; type: functional; conditions: time 26 hrs
Staphylococcus aureus [10] = test: Antibacterial activity against Staphylococcus aureus incubated for 2 hrs followed by sterilized TSB addition and measured after 24 hrs by visual inspection; type: functional; conditions: time 26 hrs
Pseudomonas aeruginosa = test: Antibacterial activity against Pseudomonas aeruginosa incubated for 2 hrs followed by sterilized TSB addition and measured after 24 hrs by visual inspection; type: functional; conditions: time 26 hrs
[11] = Cmax in Sprague-Dawley rat brain at 5 mg/kg, ip measured up to 30 mins by HPLC-MS analysis; type: ADME, organism-based; set-up: route intraperitoneal, dose 5 mg/kg, time <=30
[12] = Ratio of drug level in Sprague-Dawley rat brain to plasma at 5 mg/kg, ip measured after 10 to 180 mins by HPLC-MS analysis; type: ADME, organism-based; conditions: brain and plasma, time 10-180 min, read-out: BPR
[13] = molecular target: T1, Amyloid-beta precursor protein (Homo sapiens, UniProt P05067); test: Inhibition of self-induced amyloid beta (1 to 42) (unknown origin) aggregation incubated for 24 hrs by ThT fluorescence assay
[14] = Volume of distribution in Sprague-Dawley rat plasma at 5 mg/kg, ip measured after 10 to 180 mins by HPLC-MS analysis; type: ADME, organism-based; conditions: in vivo, time 10-180 min
[15] = AUC (0 to infinity) in Sprague-Dawley rat plasma at 5 mg/kg, ip measured after 10 to 180 mins by HPLC-MS analysis; type: ADME, organism-based; set-up: route intraperitoneal, time lower 10 min, dose 5 mg/kg, time upper 180 min
[16] = Half life in Sprague-Dawley rat plasma at 5 mg/kg, ip measured after 10 to 180 mins by HPLC-MS analysis; type: ADME, organism-based; conditions: time 10-180 min
Acetylcholinesterase [17] = molecular target: Acetylcholinesterase (Torpedo californica, UniProt P04058); test: Inhibition of Torpedo californica AChE using acetylthiocholine iodide as substrate preincubated for 15 mins followed by substrate addition and measured for 5 mins; set-up: species or system Tetronarce californica
[18] = Antioxidant activity assessed as DPPH radical scavenging activity incubated for 30 mins by absorbance method; type: functional
[19] = molecular target: T1, Amyloid-beta precursor protein; test: Inhibition of human amyloid beta (1 to 42) aggregation incubated for 24 hrs by ThT fluorescence assay; conditions: concentration not given here
[20] = Binding affinity to Fe3+ assessed as pFe at by potentiometric/UV-Vis spectrophotometric method
[21] = Binding affinity to Cu2+ assessed as pCu at pH 7.4 by potentiometric/UV-Vis spectrophotometric method
Providencia stuartii = test: Antibacterial activity against Providencia stuartii incubated for 24 hrs by visual inspection; type: functional
Staphylococcus aureus [22] = test: Antibacterial activity against Staphylococcus aureus incubated for 2 hrs followed by sterilized water addition and measured after 24 hrs by visual inspection; type: functional; conditions: time 26 hrs
Acetylcholinesterase [23] = molecular target: Acetylcholinesterase (Electrophorus electricus, UniProt O42275); test: Inhibition of electric eel AChE using acetylthiocholine iodide as substrate preincubated for 5 mins followed by substrate addition and measured after 2 mins by Ellman's method
[24] = Octanol-buffer partition coefficient, logP of the compound at pH 7.4 by shake flask method; type: physicochemical
[25] = Partition coefficient, log P of the compound; type: physicochemical; conditions: octanol/water
Plasmodium falciparum [26] = test: Antiplasmodial activity against Plasmodium falciparum NF54 treated for 96 hrs with replacement of growth medium once a day for 4 days; type: functional, organism-based; conditions: NF54, 96 h
Enterococcus faecium = test: Antibacterial activity against Enterococcus faecium BM4105 incubated for 20 hrs by CLSI-based broth microdilution method; type: functional
Enterococcus faecalis = test: Antibacterial activity against Enterococcus faecalis incubated for 20 hrs by CLSI-based broth microdilution method; type: functional
Staphylococcus aureus [27] = test: Antibacterial activity against Staphylococcus aureus ATCC 25913 incubated for 20 hrs by CLSI-based broth microdilution method; type: functional
[28] = tested on: Staphylococcus epidermidis; test: Antibacterial activity against Staphylococcus epidermidis incubated for 20 hrs by CLSI-based broth microdilution method; type: functional
Staphylococcus aureus [29] = test: Protection against Staphylococcus aureus Smith infected in sc dosed mouse administered 1 hr post infection and measured at 7 days post infection by Litchfield-Wilcoxon method; type: functional; conditions: 168 h, time 7 day

T1 sequence (P05067 whole entry): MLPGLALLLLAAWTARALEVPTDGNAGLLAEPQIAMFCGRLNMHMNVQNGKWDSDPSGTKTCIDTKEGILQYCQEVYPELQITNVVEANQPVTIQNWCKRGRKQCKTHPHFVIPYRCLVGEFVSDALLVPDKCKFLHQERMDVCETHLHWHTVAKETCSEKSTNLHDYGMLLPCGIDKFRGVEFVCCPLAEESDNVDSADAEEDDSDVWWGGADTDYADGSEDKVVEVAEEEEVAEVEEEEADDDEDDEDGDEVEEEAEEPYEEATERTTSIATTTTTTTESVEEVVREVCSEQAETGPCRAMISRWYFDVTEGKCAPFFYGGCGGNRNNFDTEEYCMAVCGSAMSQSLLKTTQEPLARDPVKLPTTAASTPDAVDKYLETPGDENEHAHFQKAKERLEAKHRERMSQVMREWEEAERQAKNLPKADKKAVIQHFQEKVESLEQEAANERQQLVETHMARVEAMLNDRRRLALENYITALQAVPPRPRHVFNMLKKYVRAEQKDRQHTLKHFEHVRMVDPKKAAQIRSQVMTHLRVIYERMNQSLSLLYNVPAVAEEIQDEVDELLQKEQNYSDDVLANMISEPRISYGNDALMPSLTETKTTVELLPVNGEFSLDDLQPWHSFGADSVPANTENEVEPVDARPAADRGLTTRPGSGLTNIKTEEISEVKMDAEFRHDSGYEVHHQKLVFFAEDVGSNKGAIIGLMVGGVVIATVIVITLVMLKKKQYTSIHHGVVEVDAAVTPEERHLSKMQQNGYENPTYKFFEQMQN
Chain of Acetylcholinesterase (Torpedo californica, UniProt P04058) (P04058 whole entry): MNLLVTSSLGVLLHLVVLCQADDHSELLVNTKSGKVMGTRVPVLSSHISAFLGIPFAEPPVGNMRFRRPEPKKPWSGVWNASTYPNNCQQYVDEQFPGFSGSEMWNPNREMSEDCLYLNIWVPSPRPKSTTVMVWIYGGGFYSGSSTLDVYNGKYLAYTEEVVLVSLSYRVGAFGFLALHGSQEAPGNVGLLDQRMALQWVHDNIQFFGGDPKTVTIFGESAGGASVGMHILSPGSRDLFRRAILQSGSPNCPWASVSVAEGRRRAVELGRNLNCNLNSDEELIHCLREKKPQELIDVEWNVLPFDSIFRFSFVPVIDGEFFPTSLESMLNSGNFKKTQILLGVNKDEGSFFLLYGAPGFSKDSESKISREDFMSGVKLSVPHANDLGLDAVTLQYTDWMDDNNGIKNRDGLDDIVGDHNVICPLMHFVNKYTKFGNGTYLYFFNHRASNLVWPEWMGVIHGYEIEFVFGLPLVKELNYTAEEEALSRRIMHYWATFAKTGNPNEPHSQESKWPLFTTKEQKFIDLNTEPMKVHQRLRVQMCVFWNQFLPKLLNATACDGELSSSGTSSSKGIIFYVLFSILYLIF
Chain of Acetylcholinesterase (Electrophorus electricus, UniProt O42275) (O42275 whole entry): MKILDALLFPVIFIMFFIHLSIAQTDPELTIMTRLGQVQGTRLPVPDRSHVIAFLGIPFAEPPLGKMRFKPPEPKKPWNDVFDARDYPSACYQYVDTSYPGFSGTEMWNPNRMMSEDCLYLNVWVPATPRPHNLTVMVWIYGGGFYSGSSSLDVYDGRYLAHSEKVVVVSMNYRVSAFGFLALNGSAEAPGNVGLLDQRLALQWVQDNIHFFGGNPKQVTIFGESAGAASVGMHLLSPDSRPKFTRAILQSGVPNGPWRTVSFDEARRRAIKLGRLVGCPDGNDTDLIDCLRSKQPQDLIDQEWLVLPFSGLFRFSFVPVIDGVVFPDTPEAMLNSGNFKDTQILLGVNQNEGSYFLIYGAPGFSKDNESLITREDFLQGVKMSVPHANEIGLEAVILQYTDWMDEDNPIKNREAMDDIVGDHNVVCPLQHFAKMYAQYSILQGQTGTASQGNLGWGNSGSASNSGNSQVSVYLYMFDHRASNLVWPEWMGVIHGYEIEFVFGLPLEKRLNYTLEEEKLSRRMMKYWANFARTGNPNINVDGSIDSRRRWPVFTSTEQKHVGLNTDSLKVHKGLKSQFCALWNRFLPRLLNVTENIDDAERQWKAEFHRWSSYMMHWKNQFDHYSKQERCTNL

- logP at 1 h [1]: 0.53
- Activity [2]: 20.3
SMILES: CC(=O)NCCCCCCn1ccc(=O)c(O)c1C

SMILES: O=c1cc(CNCCCCCCNc2ccnc3cc(Cl)ccc23)n(C2CC2)cc1OCc1ccccc1
- IC50 (Plasmodium falciparum [3]): 0.463 µM
- IC50 (Plasmodium falciparum [4]): 0.064 µM
- IC50 (Plasmodium falciparum [5]): 0.047 µM
- IC50 (Plasmodium falciparum [6]): 0.505 µM

- MIC [7]: 16 µM (≈ 18.1 µg/mL)
SMILES: CN(C)c1ccc2c(-c3cc(NC(=S)NCCC(=O)NC(CCCNC(=O)c4[nH]ccc(=O)c4O)(CCCNC(=O)c4[nH]ccc(=O)c4O)CCCNC(=O)c4[nH]ccc(=O)c4O)ccc3C(=O)[O-])c3ccc(=[N+](C)C)cc-3oc2c1

- log Ks [8]: 30.7
- Activity [9]: 30.5
SMILES: O=C(NCCN(CCNC(=O)c1[nH]ccc(=O)c1O)CCNC(=O)c1[nH]ccc(=O)c1O)c1[nH]ccc(=O)c1O

- MIC (Escherichia coli): 8 µg/mL (≈ 9.81 µM)
- MIC (Bacillus subtilis): 8 µg/mL (≈ 9.81 µM)
- MIC (Staphylococcus aureus [10]): 8 µg/mL (≈ 9.81 µM)
- MIC (Pseudomonas aeruginosa): 16 µg/mL (≈ 19.6 µM)
SMILES: CCCC(=O)NC(CCCNC(=O)c1c(O)c(=O)ccn1CCO)(CCCNC(=O)c1c(O)c(=O)ccn1CCO)CCCNC(=O)c1c(O)c(=O)ccn1CCO

- MIC (Escherichia coli): 8 µg/mL (≈ 11 µM)
- MIC (Bacillus subtilis): 8 µg/mL (≈ 11 µM)
- MIC (Staphylococcus aureus [10]): 8 µg/mL (≈ 11 µM)
- MIC (Pseudomonas aeruginosa): 16 µg/mL (≈ 22 µM)
SMILES: CCCC(=O)NC(CCCNC(=O)c1c(O)c(=O)ccn1C)(CCCNC(=O)c1c(O)c(=O)ccn1C)CCCNC(=O)c1c(O)c(=O)ccn1C

- Cmax [11]: 207 ng/mL
- Kp [12]: 0.69
- IC50 [13]: 2.85 µM
- Vd [14]: 18.7 L/kg
- AUC(0-inf) [15]: 636 ng·h/mL
- half-life [16]: 1.6 h
SMILES: C#CCN(C)CCCn1ccc(=O)c(O)c1C

SMILES: COc1cccc2cc(C(=O)NCCn3ccc(=O)c(O)c3C)oc12
- IC50 (Acetylcholinesterase [17]): 246 µM
- EC50 [18]: 199 µM
- inhibition [19]: 49.8%
- Activity [20]: 17.3
- Activity [21]: 6.5

- MIC (Providencia stuartii): 320 µg/mL (≈ 373 µM)
- MIC (Staphylococcus aureus [22]): 240 µg/mL (≈ 280 µM)
SMILES: COCCOCCOCC(=O)NC(CCC(=O)NCc1c(O)c(=O)cc(C)n1C)(CCC(=O)NCc1c(O)c(=O)cc(C)n1C)CCC(=O)NCc1c(O)c(=O)cc(C)n1C

SMILES: CCc1c(OCc2ccccc2)c(=O)ccn1CCCCCCNc1ccnc2cc(Cl)ccc12
- IC50 (Plasmodium falciparum [3]): 0.076 µM
- IC50 (Plasmodium falciparum [4]): 0.041 µM
- IC50 (Plasmodium falciparum [5]): 0.122 µM
- IC50 (Plasmodium falciparum [6]): 0.089 µM

SMILES: Cc1c(OC(N)=O)c(=O)ccn1-c1ccccc1
- IC50 (Acetylcholinesterase [23]): 48.8 µM

- logD [24]: -2.01
SMILES: CC(=O)NCCOCCOCCn1ccc(=O)c(O)c1C

- logP [25]: 0.96
SMILES: Cc1c(O)c(=O)ccn1CCN1CCCCC1

SMILES: C=CCN1C(c2ccccn2)CC(=O)C(C(=O)OC)C1c1ccccn1 (stereo unspecified)
- IC50 (Plasmodium falciparum [26]): 1.4 µM

- MIC (Enterococcus faecium): 11 µM
- MIC (Enterococcus faecalis): 11 µM
- MIC (Staphylococcus aureus [27]): 11 µM
- MIC [28]: 11 µM
SMILES: CCN(CC)c1ccc2c(-c3ccc(C(=O)NCc4c(O)c(=O)cc(C)n4C)cc3)c3ccc(=[N+](CC)CC)cc-3oc2c1

SMILES: CO/N=C(\C(=O)N[C@@H]1C(=O)N2C(C(=O)[O-])=C(C[n+]3cccc4c3CCC4)CS[C@H]12)c1csc(N)n1 [CEFPIROME]
- ED50 (Staphylococcus aureus [29]): 1.5 mg/kg

SMILES: COc1cccc2cc(C(=O)NCCn3ccc(=O)c(OCc4ccccc4)c3C)oc12
- IC50 (Acetylcholinesterase [17]): 76 µM
- EC50 [18]: > 1000 µM
- inhibition [19]: 36.1%
